# Where two headings read alike, the source gives them in different places.
# Assays:
# [1] = molecular target: Opiate Receptor, delta (OP1, DOP) (Homo sapiens, UniProt P41143); assay: Radioligand competition binding, Opiate Receptor, delta (OP1, DOP), [3H]-naltrindole, CHO cells
# [2] = molecular target: T1, Opiate Receptor, kappa (OP2, KOP) (Homo sapiens, UniProt P41145); assay: biochemical; type: binding
# T1 construct: expressed in transfected cells; host or cells: HEK-293 cells, membrane preparation
# [3] = molecular target: Opiate Receptor, μ (OP3, MOP) (Homo sapiens, UniProt P35372); assay: Radioligand competition binding, Opiate Receptor, μ (OP3, MOP), [3H]-diprenorphine, CHO-K1 cells
# [4] = molecular target: Opiate δ (Homo sapiens, UniProt P41143); assay: Opiate δ receptor binding (Table 1); conditions: for Fold change: Opiate δ Ki relative to ±BW373U86 (=1); for Ki: Table 1
# [5] = molecular target: Delta Opioid Receptor; assay: Delta Opioid Receptor Binding, forebrain, representative data set; conditions: radioligand [3H]Enkephalin, DPDPE, read-out: Kd (binding affinity)
# Protocol: Binding characteristics for various receptors including, but not limited to, delta, kappa, and mu opioid receptors are determined.
# T1 sequence (P41145 whole entry): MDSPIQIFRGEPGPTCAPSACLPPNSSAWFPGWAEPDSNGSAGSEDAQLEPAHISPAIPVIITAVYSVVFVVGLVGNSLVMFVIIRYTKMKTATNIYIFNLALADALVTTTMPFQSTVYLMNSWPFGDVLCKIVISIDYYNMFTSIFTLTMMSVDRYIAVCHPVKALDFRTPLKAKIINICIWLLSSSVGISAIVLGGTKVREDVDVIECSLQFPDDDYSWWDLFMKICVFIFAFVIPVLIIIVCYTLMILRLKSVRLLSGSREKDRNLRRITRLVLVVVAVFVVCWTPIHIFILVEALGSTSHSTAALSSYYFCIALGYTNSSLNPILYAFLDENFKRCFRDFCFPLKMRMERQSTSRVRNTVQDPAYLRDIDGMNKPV
# Chain of Opiate Receptor, μ (OP3, MOP) (P35372 whole entry): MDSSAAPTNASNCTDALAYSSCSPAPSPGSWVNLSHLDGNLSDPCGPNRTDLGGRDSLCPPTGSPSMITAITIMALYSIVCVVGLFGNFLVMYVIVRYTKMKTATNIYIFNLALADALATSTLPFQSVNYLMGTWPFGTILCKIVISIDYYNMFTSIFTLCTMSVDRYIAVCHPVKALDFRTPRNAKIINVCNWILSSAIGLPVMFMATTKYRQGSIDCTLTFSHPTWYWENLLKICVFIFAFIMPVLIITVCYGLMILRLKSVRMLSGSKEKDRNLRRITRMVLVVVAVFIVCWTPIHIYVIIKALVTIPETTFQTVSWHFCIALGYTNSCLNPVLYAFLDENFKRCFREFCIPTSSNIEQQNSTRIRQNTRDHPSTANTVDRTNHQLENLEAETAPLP
# Chain of Opiate δ (P41143 whole entry): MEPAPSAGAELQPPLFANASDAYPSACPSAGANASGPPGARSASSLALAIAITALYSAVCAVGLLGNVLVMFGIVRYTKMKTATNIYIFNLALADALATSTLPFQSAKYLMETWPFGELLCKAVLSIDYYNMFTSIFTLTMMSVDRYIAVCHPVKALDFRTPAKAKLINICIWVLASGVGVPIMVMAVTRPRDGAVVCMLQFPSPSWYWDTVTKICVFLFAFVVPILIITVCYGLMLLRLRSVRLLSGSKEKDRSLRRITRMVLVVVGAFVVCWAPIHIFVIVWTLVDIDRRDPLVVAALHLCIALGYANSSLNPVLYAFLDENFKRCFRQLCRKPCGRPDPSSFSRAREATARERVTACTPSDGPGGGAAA
# Chain of Opiate Receptor, delta (OP1, DOP) (P41143 whole entry): as above
compound,measurement,setting,value
"C=CCN1C[C@H](C)N([C@H](c2ccc(C(=O)N(CC)CC)cc2)c2cccc(O)c2)C[C@H]1C [(+) BW373U86, (+)-4-[(αR)-α-((2S,5R)-4-Allyl-2,5-dimethyl-1-piperazinyl)-3-hydroxbenzyl]-N,N-diethylbenzamide, reference compound]",IC50,[1],0.001 µM
same,Ki,[1],0.000354 µM
same,nH,[1],0.91
same,IC50,[2],0.223 µM
same,Ki,[2],0.0892 µM
same,nH,[2],0.78
same,IC50,[3],0.309 µM
same,Ki,[3],0.126 µM
same,nH,[3],0.83
"C=CCN1CCN(C(c2ccc(C(=O)N(CC)CC)cc2)c2cccc(O)c2)CC1 (centres unmarked) [demethyl-BW373U86, 4-[(4-Allyl-1-piperazinyl)-3-hydroxbenzyl]-N,N-diethylbenzamid]",nH,[1],1.10
same,IC50,[1]; read-out: IC50,0.00709 µM
same,Ki,[1]; read-out: Ki,0.0025 µM
same,nH,[2],0.87
same,IC50,[2]; read-out: IC50,1 µM
same,Ki,[2]; read-out: Ki,0.401 µM
same,nH,[3],1.02
same,IC50,[3]; read-out: IC50,11 µM
same,Ki,[3]; read-out: Ki,4.45 µM
"C=CCN1CCN(C(c2ccc(C(=O)N(CC)CC)cc2)c2cccc(OCCOCCOCCOCCOCCOCCOCCOC)c2)CC1 (centres unmarked) [mPEG7-demethyl-BW373U86, 4-[(4-Allyl-1-piperazinyl)-3-O-methoxy(heptaethylene glycol)benzyl]-N,N-diethylbenzamide]",IC50,[1]; read-out: IC50,3.47 µM
same,Ki,[1]; read-out: Ki,1.22 µM
"C=CCN1C[C@H](C)N([C@H](c2ccc(C(=O)N(CC)CC)cc2)c2cccc(OCCOCCOCCOCCOCCOCCOCCOC)c2)C[C@H]1C [mPEG-7 + BW373U86, (+)-4-[(αR)-α-((2S,5R)-4-Allyl-2,5-dimethyl-1-piperazinyl)-3-O-methoxy(heptaethylene glycol)benzyl]-N,N-diethylbenzamid]",Fold change,[4],242.7
same,Ki,"[4]; read-out: Opiate δ, Ki",864 nM
"C=CCN1C[C@H](C)N([C@H](c2ccc(C(=O)N(CC)CC)cc2)c2cccc(O)c2)C[C@H]1C (racemic) [±BW373U86, (±)-4-[(αR)-α-((2S,5R)-4-Allyl-2,5-dimethyl-1-piperazinyl)-3-hydroxbenzyl]-N,N-diethylbenzamide, reference compound]",Ki,"[4]; Opiate δ, Ki (nM)",0.36 nM
"Br.Br.C=CCN1CC(C)N(C(c2ccc(C(=O)N(CC)CC)cc2)c2cccc(O)c2)CC1C (racemic) [(+/−) BW373U86 dihydrobromide, reference compound]",IC50,[1]; read-out: IC50,0.00326 µM
same,Ki,[1]; read-out: Ki,0.00115 µM
same,nH,[2],0.92
same,IC50,[2]; read-out: IC50,0.556 µM
same,Ki,[2]; read-out: Ki,0.223 µM
same,nH,[3],0.92
same,IC50,[3]; read-out: IC50,0.659 µM
same,Ki,[3]; read-out: Ki,0.268 µM
"C=CCN1CCN(C(c2ccc(C(=O)N(CC)CC)cc2)c2cccc(OCCOCCOCCOC)c2)CC1 (centres unmarked) [mPEG3-demethyl-BW373U86, 4-[(4-Allyl-1-piperazinyl)-3-O-methoxy(triethyleneglycol)benzy]-N,N-diethylbenzamid]",IC50,[1]; read-out: IC50,6.05 µM
same,Ki,[1]; read-out: Ki,2.13 µM
"C=CCN1C[C@H](C)N([C@H](c2ccc(C(=O)N(CC)CC)cc2)c2cccc(OCCOCCOCCOCCOCCOCCOCCOC)c2)C[C@H]1C (racemic) [mPEG-7 ± BW373U86, (±)-4-[(αR)-α-((2S,5R)-4-Allyl-2,5-dimethyl-1-piperazinyl)-3-O-methoxy(heptaethylene glycol)benzyl]-N,N-diethylbenzamid]",Fold change,[4],~298
same,Ki,"[4]; read-out: Opiate δ, Ki",~1330 nM
"C=CCN1C[C@H](C)N([C@H](c2ccc(C(=O)N(CC)CC)cc2)c2cccc(OCCOCCOCCOC)c2)C[C@H]1C [mPEG-3 + BW373U86, (+)-4-[(αR)-α-((2S,5R)-4-Allyl-2,5-dimethyl-1-piperazinyl)-3-O-methoxy(triethylene glycol)benzyl]-N,N-diethylbenzamid]",Ki,"[4]; read-out: Opiate δ, Ki",491 nM
same,IC50,[1]; read-out: IC50,0.723 µM
same,Ki,[1]; read-out: Ki,0.255 µM
"CCN(CC)C(=O)c1ccc(C(c2cccc(OCCOCCOCCOC)c2)N2CCN(Cc3ccccc3)CC2)cc1 (centres unmarked) [mPEG3-N-benzyl-deallyl-demethyl-BW373U86, 4-[(4-Benzyl-1-piperazinyl)-3-O-methoxy(triethyleneglycol)benzyl]-N,N-diethylbenzamide]",IC50,[1],0.212 µM
same,Ki,[1],0.0747 µM
same,nH,[1],1.50
"CCN(CC)C(=O)c1ccc([C@H](c2cccc(O)c2)N2C[C@@H](C)N(CCOCCOCCOC)C[C@@H]2C)cc1 (racemic) [mPEG3-N-(+/−)-BW373U86, (±)-4-[(αR)-α-((2S,5R)-4-methoxy(triethylene glycol)-2,5-dimethyl-1-piperazinyl)-3-hydroxybenzyl]-N,N-diethylbenzamide]",IC50,[1]; read-out: IC50,0.764 µM
same,Ki,[1]; read-out: Ki,0.269 µM
same,IC50,[3]; read-out: IC50,9.37 µM
same,Ki,[3]; read-out: Ki,3.81 µM
"CCN(CC)C(=O)c1ccc(C(c2cccc(OCCOCCOCCOCCOCCOCCOCCOC)c2)N2CCN(Cc3ccccc3)CC2)cc1 (centres unmarked) [mPEG7-N-benzyl-deallyl-demethyl-BW373U86, 4-[(4-Benzyl-1-piperazinyl)-3-O-methoxy(heptaethyleneglycol)benzyl]-N,N-diethylbenzamid]",IC50,[1],0.106 µM
same,Ki,[1],0.0374 µM
same,nH,[1],1.08
"C=CCN1C[C@H](C)N([C@H](c2ccc(C(=O)N(CC)CC)cc2)c2cccc(OCCOCCOCCOC)c2)C[C@H]1C (racemic) [mPEG-3 ± BW373U86, (±)-4-[(αR)-α-((2S,5R)-4-Allyl-2,5-dimethyl-1-piperazinyl)-3-O-methoxy(triethylene glycol)benzyl]-N,N-diethylbenzamid]",Ki,"[4]; read-out: Opiate δ, Ki",~415 nM
"DPDPE [[3H]Enkephalin, DPDPE]",Kd,[5],0.0021 µM
"CCN(CC)C(=O)c1ccc(C(c2cccc(O)c2)N2CCN(Cc3ccccc3)CC2)cc1 (centres unmarked) [N-benzyl-deallyl-demethyl-BW373U86, 4-[(4-Benzyl-1-piperazinyl)-3-hydroxbenzyl]-N,N-diethylbenzamid]",IC50,[1],0.00133 µM
same,Ki,[1],0.00047 µM
same,nH,[1],0.99
same,IC50,[2],2.37 µM
same,Ki,[2],0.946 µM
same,nH,[2],0.95
same,IC50,[3],2.75 µM
same,Ki,[3],1.11 µM
same,nH,[3],0.90
